Data taken from article PMC12064818, “A general assay platform to study protein pharmacology using ligand-dependent structural dynamics” (Nature Communications, 2025).

Columns and labels:
[1] = target: T1, FLuc-C-HiBiT (firefly luciferase) (Photinus pyralis, UniProt P08659, form not given/L550V); experiment: Firefly luciferase (FLuc) enzymatic luminescence assay, FLuc-C-HiBiT; type: biochemical; conditions: Log [PTC124]
Summary of the method: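 Compounds were preincubated 30–60 min at room temperature in the dark with 1–10 nM fusion enzyme in PBS pH 7.4. D-luciferin was then added (10 µM final) for 5 min before luminescence was imaged. Inhibition was normalized to no-enzyme control (100%) and DMSO neutral control.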

[2] = target: T1, FLuc-C-HiBiT (firefly luciferase); experiment: SDR assay, FLuc-C-HiBiT; conditions: for SDR assay statistics Ave RLU / SDR assay statistics S:B / SDR assay statistics S:N / SDR assay statistics Z’: 32.8 µM ligand; for 10 nM FLuc-C-HiBiT + 10 mM ATP, Mean / 10 nM FLuc-C-HiBiT No ATP, Mean: Log [PTC124]
[3] = FLuc-C-HiBiT (10 nM) + 10 mM ATP

T1 sequence (P08659 2-550 L550V, form open): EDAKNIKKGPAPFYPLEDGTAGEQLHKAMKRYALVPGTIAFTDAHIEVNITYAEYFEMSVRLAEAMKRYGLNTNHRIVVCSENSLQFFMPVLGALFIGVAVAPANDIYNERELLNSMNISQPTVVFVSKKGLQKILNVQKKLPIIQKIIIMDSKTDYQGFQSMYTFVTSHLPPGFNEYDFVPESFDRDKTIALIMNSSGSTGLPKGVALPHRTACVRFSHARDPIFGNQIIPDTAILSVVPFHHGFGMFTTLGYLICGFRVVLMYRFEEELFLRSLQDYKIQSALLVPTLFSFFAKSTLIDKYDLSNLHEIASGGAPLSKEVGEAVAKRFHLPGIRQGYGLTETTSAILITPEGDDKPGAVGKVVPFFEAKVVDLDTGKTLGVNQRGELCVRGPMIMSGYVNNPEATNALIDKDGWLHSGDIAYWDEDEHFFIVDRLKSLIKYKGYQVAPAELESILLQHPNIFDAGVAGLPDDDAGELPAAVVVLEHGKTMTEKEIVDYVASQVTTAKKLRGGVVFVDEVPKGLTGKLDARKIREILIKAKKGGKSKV

O=C(O)c1cccc(-c2noc(-c3ccccc3F)n2)c1 [PTC124, reference compound]
10 nM FLuc-C-HiBiT Enz, Mean ([1]; M (Enz) -9.01): 195.6 RLU | 10 nM FLuc-C-HiBiT Enz, Mean ([1]; M (Enz) -9.49): 204.3 RLU | 10 nM FLuc-C-HiBiT Enz, Mean ([1]; M (Enz) -9.97): 206.3 RLU | 10 nM FLuc-C-HiBiT Enz, Mean ([1]; M (Enz) -10.44): 203.9 RLU | 10 nM FLuc-C-HiBiT Enz, Mean ([1]; M (Enz) -10.92): 205.8 RLU | 10 nM FLuc-C-HiBiT Enz, Mean ([1]; M (Enz) -11.40): 202.8 RLU | pSDR50, FLuc-C-HiBiT (10 nM) ([2]; 0 μM ATP): 5.73 ± 0.13 | pSDR50, FLuc-C-HiBiT (10 nM) ([2]; 10 μM ATP): 8.30 ± 0.07 | SDR assay statistics Ave RLU [2, 3]: 11178.8 RLU | SDR assay statistics S:B [2, 3]: 6.5 | SDR assay statistics S:N [2, 3]: 12.2 | SDR assay statistics Z’ [2, 3]: 0.693 | SDR assay statistics Ave RLU ([2]; FLuc-C-HiBiT (10 nM) No ATP): 6229.4 RLU | SDR assay statistics S:B ([2]; FLuc-C-HiBiT (10 nM) No ATP): 5.1 | SDR assay statistics S:N ([2]; FLuc-C-HiBiT (10 nM) No ATP): 7.5 | SDR assay statistics Z’ ([2]; FLuc-C-HiBiT (10 nM) No ATP): 0.503 | 10 nM FLuc-C-HiBiT + 10 mM ATP, Mean ([2]; M (SDR) -4.48): 21802.2 RLU | 10 nM FLuc-C-HiBiT No ATP, Mean ([2]; M (SDR) -4.48): 17458.7 RLU | 10 nM FLuc-C-HiBiT + 10 mM ATP, Mean ([2]; M (SDR) -4.96): 22284.7 RLU | 10 nM FLuc-C-HiBiT No ATP, Mean ([2]; M (SDR) -4.96): 16769.9 RLU | 10 nM FLuc-C-HiBiT + 10 mM ATP, Mean ([2]; M (SDR) -5.44): 22342.5 RLU | 10 nM FLuc-C-HiBiT No ATP, Mean ([2]; M (SDR) -5.44): 16051.7 RLU | 10 nM FLuc-C-HiBiT + 10 mM ATP, Mean ([2]; M (SDR) -5.91): 22563.9 RLU | 10 nM FLuc-C-HiBiT No ATP, Mean ([2]; M (SDR) -5.91): 15076.6 RLU | 10 nM FLuc-C-HiBiT + 10 mM ATP, Mean ([2]; M (SDR) -6.39): 22424.3 RLU | 10 nM FLuc-C-HiBiT No ATP, Mean ([2]; M (SDR) -6.39): 13877.2 RLU | 10 nM FLuc-C-HiBiT + 10 mM ATP, Mean ([2]; M (SDR) -6.87): 22543.4 RLU | 10 nM FLuc-C-HiBiT No ATP, Mean ([2]; M (SDR) -6.87): 13237.3 RLU | 10 nM FLuc-C-HiBiT + 10 mM ATP, Mean ([2]; M (SDR) -7.35): 21860.7 RLU | 10 nM FLuc-C-HiBiT No ATP, Mean ([2]; M (SDR) -7.35): 13241.3 RLU | 10 nM FLuc-C-HiBiT + 10 mM ATP, Mean ([2]; M (SDR) -7.82): 20621.1 RLU | 10 nM FLuc-C-HiBiT No ATP, Mean ([2]; M (SDR) -7.82): 13270.4 RLU | 10 nM FLuc-C-HiBiT + 10 mM ATP, Mean ([2]; M (SDR) -8.30): 18655.3 RLU | 10 nM FLuc-C-HiBiT No ATP, Mean ([2]; M (SDR) -8.30): 13170.2 RLU | 10 nM FLuc-C-HiBiT + 10 mM ATP, Mean ([2]; M (SDR) -8.78): 16941.8 RLU | 10 nM FLuc-C-HiBiT No ATP, Mean ([2]; M (SDR) -8.78): 13237.7 RLU | 10 nM FLuc-C-HiBiT + 10 mM ATP, Mean ([2]; M (SDR) -9.25): 15920.6 RLU | 10 nM FLuc-C-HiBiT No ATP, Mean ([2]; M (SDR) -9.25): 13300.5 RLU | 10 nM FLuc-C-HiBiT + 10 mM ATP, Mean ([2]; M (SDR) -9.73): 15410.2 RLU | 10 nM FLuc-C-HiBiT No ATP, Mean ([2]; M (SDR) -9.73): 13254.2 RLU | 10 nM FLuc-C-HiBiT + 10 mM ATP, Mean ([2]; M (SDR) -10.21): 15302.7 RLU | 10 nM FLuc-C-HiBiT No ATP, Mean ([2]; M (SDR) -10.21): 12964.2 RLU | 10 nM FLuc-C-HiBiT + 10 mM ATP, Mean ([2]; M (SDR) -10.69): 15229.5 RLU | 10 nM FLuc-C-HiBiT No ATP, Mean ([2]; M (SDR) -10.69): 13111.1 RLU | 10 nM FLuc-C-HiBiT + 10 mM ATP, Mean ([2]; M (SDR) -11.16): 15146.3 RLU | 10 nM FLuc-C-HiBiT No ATP, Mean ([2]; M (SDR) -11.16): 13296.1 RLU | 10 nM FLuc-C-HiBiT + 10 mM ATP, Mean ([2]; M (SDR) -11.64): 14993.9 RLU | 10 nM FLuc-C-HiBiT No ATP, Mean ([2]; M (SDR) -11.64): 13163.6 RLU
